We go through one molecule from patent US9707239B2, “Compounds that modulate oxidative stress” (vTv Therapeutics LLC, priority 2011, dated 2017).

“Also recorded” adds a separate entry of the source.

What all share (type): cell-based, human
The subject of one data set is Nrf2. The data set can be described thus: HMOX1 mRNA induction after Nrf2 siRNA silencing. To be noted: NHLF cells, 50 nM siRNA 48 hours, FIG. 5. The protocol:
Small interfering RNA targeting Nrf-2 (cat# SI03246614) or KEAP-1 (cat# SI03246439) were obtained from Qiagen at 20 nmol/tube. Negative control siRNA (cat#1027280) was also obtained from Qiagen. Lyophilized siRNA in each tube was resuspended with 1 ml of the provided siRNA Suspension Buffer to make a stock solution of 20 μM and tubes were heated at 90° C. for one minute and then at 37° C. for one hour prior to initial use.
Normal human lung fibroblasts were plated at 5000 cells/well in 96-well plates and allowed to attach. Prior to experiments, well s containing the cells were refreshed with 30 μl of complete growth medium. For each siRNA type, a 4× concentration (200 nM) of siRNA was prepared by adding 11 μl of siRNA stock into 1.1 ml of serum-free medium containing 9 μl/ml of SILENTFECT Lipid Reagent (BioRad, cat#170-3361). This solution was incubated at room temperature for 20 minutes prior to adding 10 μl into each well for a final concentration of 50 nM siRNA. Cells were incubated with siRNA for 48 hours, after which they were treated with compound for either 5 hours (QuantiGene RNA assay) or 15 hours (protein immunofluorescence assay).
The predicted response profile is that silencing of Nrf2 should reduce the amount of HMOX1 induction by Compound 13 and other HMOX1 inducers that are electrophiles or reactive compounds. To that end, Compound 13 and other tool compounds were tested in cells that were treated with siRNA directed to Nrf2. Following gene silencing with specific siRNA or control siRNA, the ability of tool compounds to induce HMOX1 mRNA was determined.

Another data set concerns ICAM. In words: mRNA expression (Quantigene Plex) in NHLF cells: ICAM. The conditions noted are these: Table 5, 6 h, mRNA normalized to GAPDH, above DMSO treated cells. The protocol:
(§1) Secondary growth of NHLF cells were used for all assays. Cell were thawed and then placed into culture in T225 flasks. The cells were grown to 80% confluency and harvested by washing once with HEPES buffered saline solution and then trypsinizing. Equal numbers (7×10^3 cells per well) of NHLF cells were plated in 96 well tissue culture plates (Corning). Cells were incubated overnight in FGM-2 medium prior to exposure to compound. Cells were treated with either DMSO or a compound as described below for 6 h. Preparation of cell lysates was carried out according to instructions using the Quantigene Reagent system 2.0 protocol (Panomics). mRNA induction was detected from cell lysate using the Quantigene Plex 2.0 Assay Kit (Panomics) on the Luminex platform (BIO-RAD). Expression of GAPDH mRNA was used as the internal control for the Quantigen Plex 2.0 Assay. The data in Tables 5 and 6 represents the fold change of target mRNA expression, normalized to control values, above DMSO treated cells.

The subject of the next data set is TXNRD1. The data set can be described thus: mRNA expression (Quantigene Plex) in NHLF cells: TXNRD1. To be noted: Table 5, 6 h, mRNA normalized to GAPDH, above DMSO treated cells. The method, then: as §1
Another data set deals with Keap1. In words: HMOX1 induction after Keap1 silencing (shRNA). The conditions noted are these: NHLF cells, FIG. 6. The protocol: Normal human lung fibroblasts were plated in a 12-well tissue culture dish at 16,000 cells/well and allowed to attach overnight. Regular medium was then replaced with 200 μl of fresh growth medium containing 8 μg/ml hexadimethrine bromide (polybrene). Lentiviral transduction particles were then added in the following amounts: Control shRNA (1.1×10^7 TU/ml, Sigma, cat# SHC002V), 15 μl for an MOI of 10; KEAP-1 shRNA (6.3×10^6 TU/ml, Sigma, cat# SHCLNV-TRCN0000046092), 63 μl for an MOI of 20. After 4 hours in the cell culture incubator, another 200 μl of growth medium was added on top of the original volume. Cells were replenished the next day with fresh complete growth medium and were allowed to recover for 24 hours, after which selection medium was applied (complete medium with 1 μg/ml puromycin).
Another method of testing the role of the Nrf2 regulatory pathway on compound activity is to determine the effect of silencing Keap1 on HMOX1 gene expression. It is known that deleting Keap1 will result in the induction of Nrf2 dependent genes but not, to any significant degree, HMOX1. The proposed explanation for this observation is that HMOX1 requires the concomitant derepression of Bach1 activity and that this event is more dependent on active processes (e.g., heme binding, changes in redox potential of the cell, phosphorylation of Bach1, etc.). We therefore tested the ability of Compound 13 and tool compounds to induce HMOX1 in the presence of silencing of Keap1 in normal human lung fibroblasts.
Normal human lung fibroblasts were tested with DMSO, CoPP, Compound 13, and two derivatives including Compound 4 and Compound 8. An electrophile, Compound 1, was also included in the test set. […] On the other hand, induction of HMOX1 by the electrophile Compound 1 was inhibited.

As for `O=C(Nc1ccc2cn[nH]c2c1)c1ccc2[nH]c(Nc3nc4ccccc4s3)nc2c1` [Compound 13, 2-(Benzothiazol-2-ylamino)-1H-benzoimidazole-5-carboxylic acid (1H-indazol-6-yl)-amide], in the data set on Nrf2, the “HMOX1 mRNA induction with siRNA directed to Nrf2” value is on record as “affected by the presence of the siRNA for Nrf2; also recorded: requires Nrf2 for full induction of HMOX1 mRNA”. Further, the entries for the “ICAM (fold induction)” value in the data set with ICAM and in the data set on ICAM (listed as #13) were “nor did it induce” and 1.1 fold induction, respectively. Also, the “TXNRD1 (fold induction)” value with TXNRD1 is reported as “shown to induce”; with TXNRD1 (listed as #13), 1.5 fold induction. In the data set with Keap1, the “HMOX1 induction in the presence of Keap1 silencing” value is “unaffected in their ability to induce HMOX1 in the presence of Keap1 silencing; also recorded: behaves similarly to CoPP induction”.
